In patent US20250034159A1, “INHIBITORS OF EPIDERMAL GROWTH FACTOR RECEPTOR” (ORIC Pharmaceuticals, Inc., priority 2021, published 2025):
Read-outs that look alike come from different tables or passages of the source.

Key:
BaF3_EGFR d19/CS cells = experiment: Biological Activity Assay D: BaF3 cell proliferation assay, EGFR exon 19 deletion/C797S (BaF3 d19/CS); assay type: cell-based; conditions: Ba/F3 EGFR, read-out: BaF3 d19/CS IC50
Ba/F3_EGFR WT cells = experiment: Biological Activity Assay D: BaF3 cell proliferation assay, EGFR wild-type (BaF3 WT); assay type: cell-based; conditions: Ba/F3 EGFR, read-out: BaF3 WT IC50
[1] = molecular target: recombinant human EGFR exon 19 deletion/C797S double mutant protein (Homo sapiens (Human), UniProt P00533, C797S/DEL746-750); experiment: Biological Activity Assay C: biochemical assay against EGFR exon 19 deletion/C797S protein (EGFR d19/CS)
recombinant human EGFR exon 19 deletion/C797S double mutant protein, sequence (P00533 other isoform, or with tags, fused parts or gaps C797S/del 1-668/del 746-750 limits assumed): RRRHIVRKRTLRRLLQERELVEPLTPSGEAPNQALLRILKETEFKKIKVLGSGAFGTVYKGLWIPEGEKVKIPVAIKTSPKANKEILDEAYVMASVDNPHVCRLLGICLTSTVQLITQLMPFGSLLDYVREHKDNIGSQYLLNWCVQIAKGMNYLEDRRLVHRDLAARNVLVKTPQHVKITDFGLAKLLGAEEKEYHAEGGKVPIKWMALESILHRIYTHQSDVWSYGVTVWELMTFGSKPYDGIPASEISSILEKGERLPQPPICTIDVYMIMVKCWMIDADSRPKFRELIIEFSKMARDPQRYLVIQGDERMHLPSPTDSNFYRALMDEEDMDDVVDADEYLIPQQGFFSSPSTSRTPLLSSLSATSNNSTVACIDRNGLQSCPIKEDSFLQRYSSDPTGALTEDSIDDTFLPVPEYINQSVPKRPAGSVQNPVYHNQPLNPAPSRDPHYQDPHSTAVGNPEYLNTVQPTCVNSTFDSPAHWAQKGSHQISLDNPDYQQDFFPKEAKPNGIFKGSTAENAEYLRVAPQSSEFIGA
Method in brief: (§1)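 IC50 values were fitted with a 4-parameter model to reaction slopes taken from 90 kinetic reads spaced 120 s apart. The Phosphosens sensor/ATP working solution was 40 uM/4 mM, and compound was dosed as 16-point dilutions at 2.5% final DMSO.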

[2] = molecular target: recombinant human EGFR L858R/C797S double mutant protein (Homo sapiens (Human), UniProt P00533, C797S/L858R); experiment: Biological Activity Assay B: biochemical assay against EGFR L858R/C797S protein (EGFR LR/CS)
recombinant human EGFR L858R/C797S double mutant protein, sequence (P00533 25-1210 C797S/L858R): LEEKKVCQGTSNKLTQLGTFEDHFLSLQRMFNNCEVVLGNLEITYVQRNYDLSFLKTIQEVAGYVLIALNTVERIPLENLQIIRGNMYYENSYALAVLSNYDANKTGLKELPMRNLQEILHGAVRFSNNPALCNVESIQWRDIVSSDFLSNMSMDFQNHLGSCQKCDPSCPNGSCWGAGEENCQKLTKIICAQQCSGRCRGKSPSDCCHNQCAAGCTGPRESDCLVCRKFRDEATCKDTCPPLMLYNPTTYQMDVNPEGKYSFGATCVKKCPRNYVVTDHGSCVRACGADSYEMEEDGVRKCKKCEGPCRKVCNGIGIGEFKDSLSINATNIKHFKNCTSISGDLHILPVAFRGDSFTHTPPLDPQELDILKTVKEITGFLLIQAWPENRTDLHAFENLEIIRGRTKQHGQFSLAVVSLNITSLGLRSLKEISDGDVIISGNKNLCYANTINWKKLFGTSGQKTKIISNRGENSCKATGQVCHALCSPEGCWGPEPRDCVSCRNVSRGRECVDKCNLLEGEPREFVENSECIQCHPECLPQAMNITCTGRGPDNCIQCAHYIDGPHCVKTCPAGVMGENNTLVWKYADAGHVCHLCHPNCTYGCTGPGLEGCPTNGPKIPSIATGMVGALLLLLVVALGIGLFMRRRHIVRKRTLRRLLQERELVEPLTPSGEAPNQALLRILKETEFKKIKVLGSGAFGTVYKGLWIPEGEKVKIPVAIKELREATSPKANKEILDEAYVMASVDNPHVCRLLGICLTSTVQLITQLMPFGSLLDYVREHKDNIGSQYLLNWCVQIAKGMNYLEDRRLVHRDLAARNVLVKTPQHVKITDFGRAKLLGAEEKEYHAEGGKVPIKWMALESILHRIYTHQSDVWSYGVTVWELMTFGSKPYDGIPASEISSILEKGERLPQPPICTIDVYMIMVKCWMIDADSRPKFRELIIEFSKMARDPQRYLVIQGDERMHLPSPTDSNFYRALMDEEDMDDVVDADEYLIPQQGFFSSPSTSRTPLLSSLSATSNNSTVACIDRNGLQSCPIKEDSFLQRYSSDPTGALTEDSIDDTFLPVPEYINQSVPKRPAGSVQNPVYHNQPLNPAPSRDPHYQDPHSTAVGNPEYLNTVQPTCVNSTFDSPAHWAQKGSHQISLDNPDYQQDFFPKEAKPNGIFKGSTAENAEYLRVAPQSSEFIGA
Method in brief: as §1

BaF3_EGFR LR/CS cells = experiment: Biological Activity Assay D: BaF3 cell proliferation assay, EGFR L858R/C797S mutant (BaF3 LR/CS); assay type: cell-based; conditions: Ba/F3 EGFR, read-out: BaF3 LR/CS IC50
[3] = BaF3_EGFR d19/CS cells, ~72 hours, CellTiter-Glo
[4] = Ba/F3_EGFR WT cells, ~72 hours, CellTiter-Glo
[5] = BaF3_EGFR LR/CS cells, ~72 hours, CellTiter-Glo

SMILES | IC50 (BaF3_EGFR d19/CS cells; [3]) | IC50 (Ba/F3_EGFR WT cells; [4]) | IC50 [1] | IC50 [2] | IC50 (BaF3_EGFR LR/CS cells; [5]) | IC50 (BaF3_EGFR d19/CS cells; 72 h) | IC50 (Ba/F3_EGFR WT cells; 72 h) | IC50 (BaF3_EGFR LR/CS cells; 72 h)
NC(=O)Cn1cc(-c2ncnc3oc(-c4ccccc4)cc23)c(-c2ccc(F)cc2)n1 [Example 106, 2-[3-(4-Fluorophenyl)-4-(6-phenylfuro[2,3-d]pyrimidin-4-yl)-1H-pyrazol-1-yl]acetamide] | 64.7 nM | 1020 nM | 0.38 nM | 0.45 nM | 55.7 nM |  |  | 
Fc1ccc(-c2nn(C(F)F)cc2-c2ncnc3oc(-c4ccccc4)cc23)cc1 [Example 107, 4-[1-(difluoromethyl)-3-(4-fluorophenyl)-1H-pyrazol-4-yl]-6-phenylfuro[2,3-d]pyrimidine] | 314 nM | 3370 nM | 6.94 nM | 9.83 nM | 610 nM |  |  | 
CC(=O)N1CC=C(c2cc3c(-c4cn(C5CS(=O)(=O)C5)nc4-c4ccc(F)cc4)ncnc3o2)CC1 [Example 108, 3-{4-[6-(1-Acetyl-1,2,3,6-tetrahydropyridin-4-yl)furo[2,3-d]pyrimidin-4-yl]-3-(4-fluorophenyl)-1H-pyrazol-1-yl}-1λ6-thietane-1,1-dione] | 105 nM | 1520 nM | 0.45 nM | 1.59 nM | 130 nM |  |  | 
CC(C)(O)Cn1cc(-c2ncnc3oc(-c4ccccc4)cc23)c(-c2ccccc2F)n1 [Example 109, 1-[3-(2-Fluorophenyl)-4-(6-phenylfuro[2,3-d]pyrimidin-4-yl)-1H-pyrazol-1-yl]-2-methylpropan-2-ol] | 23.6 nM | 667 nM | 0.18 nM | 0.4 nM | 15.7 nM |  |  | 
CC(C)(O)Cn1cc(-c2ncnc3oc(-c4ccccc4)cc23)c(-c2ccccc2)n1 [Example 110, 2-Methyl-1-[3-phenyl-4-(6-phenylfuro[2,3-d]pyrimidin-4-yl)-1H-pyrazol-1-yl]propan-2-ol] | 83.1 nM | 1380 nM | 0.33 nM | 0.69 nM | 68.7 nM |  |  | 
NS(=O)(=O)CCn1cc(-c2ncnc3oc(-c4ccccc4)cc23)c(-c2ccc(F)cc2)n1 [Example 111, 2-[3-(4-Fluorophenyl)-4-(6-phenylfuro[2,3-d]pyrimidin-4-yl)-1H-pyrazol-1-yl]ethane-1-sulfonamide] | 114 nM | 1140 nM | 0.41 nM | 0.45 nM | 53.7 nM |  |  | 
O=S1(=O)CC(Cn2ncc(-c3ncnc4oc(-c5ccccc5)cc34)c2-c2ccc(F)cc2)C1 [Example 112, 3-((5-(4-fluorophenyl)-4-(6-phenylfuro[2,3-d]pyrimidin-4-yl)-1H-pyrazol-1-yl)methyl)thietane 1,1-dioxide] | 1150 nM | 7150 nM | 12.5 nM | 12.9 nM | 741 nM |  |  | 
COC1(CCn2cc(-c3ncnc4oc(-c5ccccc5)cc34)c(-c3ccc(F)cc3)n2)COC1 [Example 113, 4-{3-(4-fluorophenyl)-1-[2-(3-methoxyoxetan-3-yl)ethyl]-1H-pyrazol-4-yl}-6-phenylfuro[2,3-d]pyrimidine] | 315 nM | 2190 nM | 1.49 nM | 1.27 nM | 256 nM |  |  | 
CS(=O)(=O)N1CC(n2cc(-c3ncnc4oc(-c5ccccc5)cc34)c(-c3ccc(F)cc3)n2)C1 [Example 114, 4-{3-(4-fluorophenyl)-1-[1-(methanesulfonyl)azetidin-3-yl]-1H-pyrazol-4-yl}-6-phenylfuro[2,3-d]pyrimidine] | 137 nM | 3320 nM | 0.55 nM | 1.62 nM | 132 nM |  |  | 
N#CCCCn1cc(-c2ncnc3oc(-c4ccccc4)cc23)c(-c2ccc(F)cc2)n1 [Example 116, 4-[3-(4-Fluorophenyl)-4-(6-phenylfuro[2,3-d]pyrimidin-4-yl)-1H-pyrazol-1-yl]butanenitrile] |  |  | 0.23 nM | 0.37 nM |  | 47.6 nM | 1510 nM | 22.9 nM
CNC(=O)CCn1cc(-c2ncnc3oc(-c4ccccc4)cc23)c(-c2ccc(F)cc2)n1 [Example 117, 3-[3-(4-fluorophenyl)-4-(6-phenylfuro[2,3-d]pyrimidin-4-yl)-1H-pyrazol-1-yl]-N-methylpropanamide] | 93.7 nM | 1270 nM | 0.27 nM | 0.47 nM | 103 nM |  |  | 
NC(=O)CCn1cc(-c2ncnc3oc(-c4ccccc4)cc23)c(-c2ccc(F)cc2)n1 [Example 118, 3-[3-(4-Fluorophenyl)-4-(6-phenylfuro[2,3-d]pyrimidin-4-yl)-1H-pyrazol-1-yl]propanamide] | 50.5 nM | 1020 nM | 0.25 nM | 0.56 nM | 38.3 nM |  |  | 
Fc1ccc(-c2nn(CC(F)F)cc2-c2ncnc3oc(-c4ccccc4)cc23)cc1 [Example 119, 4-[1-(2,2-Difluoroethyl)-3-(4-fluorophenyl)-1H-pyrazol-4-yl]-6-phenylfuro[2,3-d]pyrimidine] | 50.9 nM | 1340 nM | 0.34 nM | 0.7 nM | 35.5 nM |  |  | 
